Results taken from patent US6787674B1, “(+)-1-Bisabolone isolated from cymbopogon flexuosus and antibacterial activity thereof” (Council of Scientific and Industrial Research, priority 2003, dated 2004).

Legend:
Format in all cases: cell-based
other test bacteria = test: In vitro antibacterial activity, other test bacteria
Procedure: (§1) The pure bacterial cultures of test bacteria were procured from laboratory culture collection maintained at RRL, Jammu. The bacterial organisms were subcultured on L B. broth. Following filter paper disc agar diffusion method (Maruzella, J. C. and Henry, P. A. 1958, the antifungal activity of perfume oils. J. Amer. Pharm. Ass., 47:471-476).
(§2) 20 ml of sterilized medium was taken in each petriplate. After the agar has hardened, 2 ml of 24 hrs. broth culture of organism was added to each petriplate and mixed thoroughly by rotatory motion of the plate and allowed to set. The sterilized Whatman filter paper No. 1 discs (4 mm diameter) were thoroughly moistened with 5 μl of (+)-1-bisabolone of formula 1 in dilution of 1:50, 1:100 in the solvent Tween-80 and placed on the seeded agar plates. The standard antibiotic disc of ampicillin was placed on surface of each seeded petriplate as standard for anti-bacterial activity. Three each of seeded agar plates for each organism were incubated at 37° C. for 36 hrs. […] The zone of inhibition was measured with the help of a divider. The […] were performed in triplicate and average zones of inhibition for anti-bacterial activity are recorded in Table-2.

Staphylococcus aureus = test: Filter paper disc agar diffusion, antibacterial activity
Procedure: as §1, §2

Bacillus cereus = test: as above
Procedure: as §1, §2

Bacillus subtilis = test: as above
Procedure: as §1, §2

gram positive bacteria = test: In vitro antibacterial activity compared with standard ampicillin
Procedure: as §1, §2

[1] = Pure 1, 4 mm disc, 37° C., 36 hrs
[2] = dilution 1:50 in Tween-80, 5 μl on 4 mm disc, 37° C., 36 hrs
[3] = dilution 1:100 in Tween-80, 5 μl on 4 mm disc, 37° C., 36 hrs
[4] = control (standard antibiotic disc of ampicillin)

SMILES | in vitro antibacterial activity (in words) (other test bacteria) | in vitro antibacterial activity (in words) (Staphylococcus aureus) | Diameter (mm) of zone inhibition (Staphylococcus aureus; [1]) | Diameter (mm) of zone inhibition (Staphylococcus aureus; [2]) | Diameter (mm) of zone inhibition (Staphylococcus aureus; [3]) | in vitro antibacterial activity (in words) (Bacillus cereus) | Diameter (mm) of zone inhibition (Bacillus cereus; [1]) | Diameter (mm) of zone inhibition (Bacillus cereus; [2]) | Diameter (mm) of zone inhibition (Bacillus cereus; [3]) | in vitro antibacterial activity (in words) (Bacillus subtilis) | Diameter (mm) of zone inhibition (Bacillus subtilis; [1]) | Diameter (mm) of zone inhibition (Bacillus subtilis; [2]) | Diameter (mm) of zone inhibition (Bacillus subtilis; [3]) | activity compared with the standard ampicillin (gram positive bacteria) | Diameter (mm) of zone inhibition (Staphylococcus aureus; [4]) | Diameter (mm) of zone inhibition (Bacillus cereus; [4]) | Diameter (mm) of zone inhibition (Bacillus subtilis; [4])
CC(C)=CCC[C@H](C)[C@H]1CCC(C)=CC1=O [(+)-1-bisabolone] | good to moderate activity | strongly active | 24 mm | 19 mm | 13 mm | strongly active | 21 mm | 13 mm | 9 mm | strongly active | 19 mm | 15 mm | 13 mm | far better activity |  |  | 
CC1(C)S[C@@H]2[C@H](NC(=O)[C@H](N)c3ccccc3)C(=O)N2[C@H]1C(=O)O [control, ampicillin, reference compound] |  |  |  |  |  |  |  |  |  |  |  |  |  |  | 6 mm | 4 mm | 5 mm
